Each structure is given as a SMILES string.

This experiment addresses full length MPS1 (Homo sapiens (Human), UniProt P33981). Kind of experiment: Measurement of inhibition of MPS1 kinase (Caliper EZ reader mobility-shift enzyme assay). It is filed as biochemical. Particulars: full length MPS1 12.5 nM or 3 nM, H236 peptide 5 μM, ATP 10 μM, 60 min at room temperature. On the procedure: Measurement of Inhibition of MPS1 Kinase
The reaction was carried out for 60 min at room temperature and stopped by the addition of buffer (10 μl) containing 20 mM EDTA, 0.05% (v/v) Brij-35, in 0.1M HEPES-buffered saline (Free acid, Sigma, UK). The plate was read on a Caliper EZ reader II (Caliper Life Sciences).
The % inhibition of the compounds is calculated relative to the means of selected control wells.

Chain of full length MPS1 (P33981 whole entry): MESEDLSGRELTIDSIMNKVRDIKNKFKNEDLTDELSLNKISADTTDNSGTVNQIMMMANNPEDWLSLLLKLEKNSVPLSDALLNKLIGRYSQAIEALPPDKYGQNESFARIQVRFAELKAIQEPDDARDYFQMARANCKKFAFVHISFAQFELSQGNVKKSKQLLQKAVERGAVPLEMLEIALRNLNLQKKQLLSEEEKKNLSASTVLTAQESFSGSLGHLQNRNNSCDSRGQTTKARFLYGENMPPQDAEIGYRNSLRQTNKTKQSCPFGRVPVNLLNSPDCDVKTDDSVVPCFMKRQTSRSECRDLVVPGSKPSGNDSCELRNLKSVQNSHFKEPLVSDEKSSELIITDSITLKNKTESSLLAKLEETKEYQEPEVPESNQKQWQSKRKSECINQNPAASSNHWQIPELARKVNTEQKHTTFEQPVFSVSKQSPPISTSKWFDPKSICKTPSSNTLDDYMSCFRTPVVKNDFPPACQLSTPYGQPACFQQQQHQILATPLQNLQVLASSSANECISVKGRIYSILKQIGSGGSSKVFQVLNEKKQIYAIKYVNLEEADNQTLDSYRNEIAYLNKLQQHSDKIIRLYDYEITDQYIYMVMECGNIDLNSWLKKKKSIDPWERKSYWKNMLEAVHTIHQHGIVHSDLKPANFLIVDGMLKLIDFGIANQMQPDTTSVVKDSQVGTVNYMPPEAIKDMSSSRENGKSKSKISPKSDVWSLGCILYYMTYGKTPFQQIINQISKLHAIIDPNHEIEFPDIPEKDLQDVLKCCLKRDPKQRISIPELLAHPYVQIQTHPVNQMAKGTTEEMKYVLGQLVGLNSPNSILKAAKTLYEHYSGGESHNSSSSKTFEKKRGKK

A word on the IC50: it is the concentration that inhibits the measured activity by half. In the case of `COc1cc(-c2cnn(C)c2)ccc1Nc1ncc2ccnc(N3CCC4(COC4)C3)c2n1` [Example 88, N-(2-methoxy-4-(1-methyl-1H-pyrazol-4-yl)phenyl)-8-(2-oxa-6-azaspiro[3.4]oxtan-6-yl)pyrido[3,4-d]pyrimidin-2-amine], the half-maximal inhibitory concentration (IC50) turned out to be 3 nM.

On to `COc1cc(-c2cnn(C)c2)ccc1Nc1ncc2ccnc(N3CCOC(CO)C3)c2n1` (centres unmarked) [Example 135, (4-(2-(2-Methoxy-4-(1-methyl-1H-pyrazol-4-yl)phenylamino)pyrido[3,4-d]pyrimidin-8-yl)morpholin-2-yl)methanol], for which the IC50 stood at 4 nM.

On to `COc1cc(-c2nncn2C)ccc1Nc1ncc2c(C)cnc(N3CC4(CCOC4)C3)c2n1` [Example 157, N-(2-methoxy-4-(4-methyl-4H-1,2,4-triazol-3-yl)phenyl)-5-methyl-8-(6-oxa-2-azaspiro[3.4]octan-2-yl)pyrido[3,4-d]pyrimidin-2-amine], for which the IC50 turned out to be 6 nM.

Regarding `COc1cc(N2CCC(C(=O)N3CCOCC3)CC2)ccc1Nc1ncc2ccnc(NCC(C)(C)C)c2n1` [Example 172, (1-(3-methoxy-4-((8-(neopentylamino)pyrido[3,4-d]pyrimidin-2-yl)amino)phenyl)piperidin-4-yl)(morpholino)methanone], the IC50 was found to be 12 nM.

As to `COc1cc(-c2cnn(C)c2)ccc1Nc1ncc2ccnc(N[S+]([O-])C(C)(C)C)c2n1` (racemic) [Example 143, (±)-N-(2-(2-methoxy-4-(1-methyl-1H-pyrazol-4-yl)phenylamino)pyrido[3,4-d]pyrimidin-8-yl)-2-methylpropane-2-sulfinamide], the IC50 amounted to 5 nM.

As for `COc1cc(-c2ncnn2C)ccc1Nc1ncc2cc(C)nc(NCC(C)(C)OC)c2n1` [Example 196], the IC50 was 20 nM.

As to `COc1cc(-c2cnn(C)c2)ccc1Nc1ncc2ccnc(NS(=O)(=O)C(C)(C)C)c2n1` [Example 107, N-(2-(2-methoxy-4-(1-methyl-1H-pyrazol-4-yl)phenylamino)pyrido[3,4-d]pyrimidin-8-yl)-2-methylpropane-2-sulfonamide], the IC50 is 39 nM.

For `COCC(C)(C)CNc1nccc2cnc(Nc3ccc(-c4cnn(C)c4)cc3OC)nc12` [Example 85, N8-(3-methoxy-2,2-dimethylpropyl)-N2-(2-methoxy-4-(1-methyl-1H-pyrazol-4-yl)phenyl)pyrido[3,4-d]pyrimidine-2,8-diamine], the IC50 was determined as 24 nM.

In the case of `COc1nc(-c2cnc(C)n2C)ccc1Nc1ncc2ccnc(NCC(C)(C)OC)c2n1` [Example 162, N^2-(6-(1,2-Dimethyl-1H-imidazol-5-yl)-2-methoxypyridin-3-yl)-N^8-(2-methoxy-2-methylpropyl)pyrido[3,4-d]pyrimidine-2,8-diamine], the IC50 amounted to 3 nM.

For `COc1cc(C(=O)N2CC(OC)C2)ccc1Nc1cc2c(-c3ccn(C)n3)cccc2cn1` [Example 12, (3-methoxy-4-((5-(1-methyl-1H-pyrazol-3-yl)isoquinolin-3-yl)amino)phenyl)(3-methoxyazetidin-1-yl)methanone], the IC50 turned out to be 26 nM.

On to `COc1cc(-c2cnn(C)c2)ccc1Nc1ncc2ccnc(-c3ccncc3)c2n1` [Example 209, N-(2-Methoxy-4-(1-methyl-1H-pyrazol-4-yl)phenyl)-8-(pyridin-4-yl)pyrido[3,4-d]pyrimidin-2-amine pyridin-4-ylboronate], for which the IC50 worked out at 7 nM.

As for `COc1cc(-c2cncn2C)ccc1Nc1cc2c(-c3cnn(C)c3)cccc2cn1` [Example 14, N-(2-methoxy-4-(1-methyl-1H-imidazol-5-yl)phenyl)-5-(1-methyl-1H-pyrazol-4-yl)isoquinolin-3-amine], the concentration for half-maximal inhibition (IC50) stood at 7 nM.

On to `COc1cc(-c2cnn(C)c2)ccc1Nc1ncc2ccnc(-c3cnn(CC(F)F)c3)c2n1` [Example 93, 8-(1-(2,2-difluoroethyl)-1H-pyrazol-4-yl)-N-(2-methoxy-4-(1-methyl-1H-pyrazol-4-yl)phenyl)pyrido[3,4-d]pyrimidin-2-amine], for which the IC50 came to 10 nM.

`COc1cc(N2CCN(S(C)(=O)=O)CC2)ccc1Nc1ncc2cc(C)nc(NCC(C)(C)C)c2n1` [Example 183]: the IC50 turned out to be 16 nM.

As to `COc1cc(-c2cnn(C)c2)ccc1Nc1ncc2ccnc(NC(CO)CO)c2n1` [Example 130, 2-(2-(2-Methoxy-4-(1-methyl-1H-pyrazol-4-yl)phenylamino)pyrido[3,4-d]pyrimidin-8-ylamino)propane-1,3-diol], the concentration for half-maximal inhibition (IC50) worked out at 4 nM.

Regarding `COc1cc(-c2cnn(C)c2)ccc1Nc1ncc2ccnc(N3CC(F)(F)C3)c2n1` [Example 63, 8-(3,3-difluoroazetidin-1-yl)-N-(2-methoxy-4-(1-methyl-1H-pyrazol-4-yl)phenyl)pyrido[3,4-d]pyrimidin-2-amine], the IC50 stood at 25 nM.

Consider `COc1cc(-c2cnn(C)c2)ccc1Nc1ncc2ccnc(NC(C)(C)C)c2n1` [Example 82, N8-tert-butyl-N2-(2-methoxy-4-(1-methyl-1H-pyrazol-4-yl)phenyl)pyrido[3,4-d]pyrimidine-2,8-diamine], for which the IC50 turned out to be 25 nM.

As to `COC(C)(C)CNc1nccc2cnc(Nc3ccc(-c4cnn(C)c4)cc3OC(F)F)nc12` [Example 204], the IC50 was 2 nM.

Take `COc1cc(-c2cnn(C)c2)ccc1Nc1ncc2ccnc(N3CC(C#N)C3)c2n1` [Example 121, 1-(2-(2-methoxy-4-(1-methyl-1H-pyrazol-4-yl)phenylamino)pyrido[3,4-d]pyrimidin-8-yl)azetidine-3-carbonitrile]: the IC50 was determined as 8 nM.

On to `COc1cc(-c2cnn(C)c2)ccc1Nc1ncc2ccnc(NC(C)CO)c2n1` (racemic) [Example 129, Racemic 2-(2-(2-Methoxy-4-(1-methyl-1H-pyrazol-4-yl)phenylamino)pyrido[3,4-d]pyrimidin-8-ylamino)propan-1-ol], for which the IC50 was 7 nM.

`COc1cc(-c2cnn(C)c2CO)ccc1Nc1ncc2ccnc(NCC(C)(C)OC)c2n1` [Example 184]: the IC50 was found to be 2 nM.

Regarding `COc1cc(-c2cnn(C)c2)ccc1Nc1ncc2ccnc(-c3cncnc3)c2n1` [Example 208, N-(2-methoxy-4-(1-methyl-1H-pyrazol-4-yl)phenyl)-8-(pyrimidin-5H)pyrido[3,4-d]pyrimidin-2-amine], the half-maximal inhibitory concentration (IC50) came out at 200 nM.

Take `COC(C)(C)CNc1nc(C)cc2cnc(Nc3ccc(-c4cnn(C)c4)cc3OC(F)F)nc12` [Example 197]: the IC50 stood at 34 nM.

As to `COc1cc(-c2cnn(C)c2)ccc1Nc1cc2c(-c3cnn(C)c3)cccc2cn1` [Example 16, N-(2-methoxy-4-(1-methyl-1H-pyrazol-4-yl)phenyl)-5-(1-methyl-1H-pyrazol-4-yl)isoquinolin-3-amine], the IC50 was 71 nM.

Regarding `COc1cc(C(=O)N2CC(OC)C2)ccc1Nc1cc2c(-c3cncn3C)cccc2cn1` [Example 4, (3-methoxy-4-((5-(1-methyl-1H-imidazol-5-yl)isoquinolin-3-yl)amino)phenyl)(3-methoxyazetidin-1-yl)methanone], the IC50 was 112 nM.

On to `COc1cc(-c2cnc(C)n2C)ccc1Nc1cc2c(-c3cnn(C)c3)nccc2cn1` [Example 104, N-(4-(1,2-dimethyl-1H-imidazol-5-yl)-2-methoxyphenyl)-5-(1-methyl-1H-pyrazol-4-yl)-2,6-naphthyridin-3-amine], for which the IC50 turned out to be 7 nM.

For `COc1cc(-c2cnn(C)c2C)ccc1Nc1ncc2ccnc(N3CCC4(COC4)C3)c2n1` [Example 145, N-(4-(1,5-dimethyl-1H-pyrazol-4-yl)-2-methoxyphenyl)-8-(2-oxa-6-azaspiro[3.4]octan-6-yl)pyrido[3,4-d]pyrimidin-2-amine], the half-maximal inhibitory concentration (IC50) was determined as 2 nM.

For `COc1cc(-c2cnn(C)c2)ccc1Nc1ncc2ccnc(NC(C)C3CC3)c2n1` (centres unmarked) [Example 75, N8-(1-cyclopropylethyl)-N2-(2-methoxy-4-(1-methyl-1H-pyrazol-4-yl)phenyl)pyrido[3,4-d]pyrimidine-2,8-diamine], the IC50 was determined as 4 nM.

As to `COc1cc(-c2cnc(C)n2C)ccc1Nc1ncc2cc(C)nc(NCC(C)(C)C)c2n1` [Example 177, N2-(4-(1,2-dimethyl-1H-imidazol-5-yl)-2-methoxyphenyl)-6-methyl-N8-neopentylpyrido[3,4-d]pyrimidine-2,8-diamine], the IC50 came to 5 nM.

As to `COc1cc(-c2cnn(C)c2)ccc1Nc1ncc2ccnc(N3CCC(C)C3)c2n1` (centres unmarked) [Example 56, N-(2-methoxy-4-(1-methyl-1H-pyrazol-4-yl)phenyl)-8-(3-methylpyrrolidin-1-yl)pyrido[3,4-d]pyrimidin-2-amine], the IC50 is 10 nM.

In the case of `CCOc1cc(-c2nncn2C)ccc1Nc1ncc2cc(C)nc(NCC(C)(C)C)c2n1` [Example 182], the IC50 is 3 nM.

On to `COc1cc(-c2cnn(C)c2)ccc1Nc1ncc2ccnc(NCC3(C)COC3)c2n1` [Example 109, N^2-(2-methoxy-4-(1-methyl-1H-pyrazol-4-yl)phenyl)-N^8-((3-methyloxetan-3-yl)methyl)pyrido(3,4-d]pyrimidine-2,8-diamine], for which the IC50 came out at 2 nM.

As to `COc1cc(-c2cnn(C)c2)ccc1Nc1ncc2ccnc(NC(C)C3CCOC3)c2n1` (racemic) [Example 125, Racemic N^2-(2-methoxy-4-(1-methyl-1H-pyrazol-4-yl)phenyl)-N^8-(1-(tetrahydrofuran-3-yl)ethyl)pyrido[3,4-d]pyrimidine-2,8-diamine], the IC50 was determined as 3 nM.

Take `COc1cc(-c2cnn(C)c2)ccc1Nc1ncc2ccnc(N3CCCC4(COC4)C3)c2n1` [Example 123, N-(2-methoxy-4-(1-methyl-1H-pyrazol-4-yl)phenyl)-8-(2-oxa-6-azaspiro[3.5]nonan-6-yl)pyrido[3,4-d]pyrimidin-2-amine]: the IC50 is 11 nM.

`COc1cc(-c2cnn(CCN3CCN(C)CC3)c2)ccc1Nc1ncc2ccnc(NC3CCCCC3)c2n1` [Example 41, N^8-cyclohexyl-N2-(2-methoxy-4-(1-(2-(4-methylpiperazin-1-yl)ethyl)-1H-pyrazol-4-yl)phenyl)pyrido[3,4-d]pyrimidine-2,8-diamine]: the IC50 turned out to be 3 nM.

These data come from patent publication US9409907B2, “Inhibitor compounds” (Cancer Research Technology Limited, priority 2012, dated 2016).
